#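 Cells were grown in 96-well plates and exposed to each compound for 48 hours at five concentrations; endpoints were interpolated linearly between bracketing concentrations, or set to the highest concentration if not reached. GI50 = concentration required for 50% inhibition of growth.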 Activity calls are given as the source filed them. Cut-off read from the data, not from the text of the source: active = GI50 up to about 1.1 µM and inactive = higher.
# Assays:
# Experiment in all cases: DTP human tumour cell line panel, 48 h
# [1] = tested on: SK-OV-3
# [2] = tested on: K562
# [3] = tested on: SR
# [4] = tested on: CCRF-CEM
# [5] = tested on: HT-29
# [6] = tested on: UACC-257
# [7] = tested on: 786-0
# [8] = tested on: HL-60
# [9] = tested on: MOLT-4
# [10] = tested on: T47D
# [11] = tested on: LOX IMVI
# [12] = tested on: OVCAR-4
# [13] = tested on: TK-10
# [14] = tested on: SW-620
# [15] = tested on: ACHN
# [16] = tested on: SN12C
# [17] = tested on: OVCAR-8
SMILES,GI50 [1],GI50 [2],GI50 [3],GI50 [4],GI50 [5],GI50 [6],GI50 [7],GI50 [8],GI50 [9],GI50 [10],GI50 [11],GI50 [12],GI50 [13],GI50 [14],GI50 [15],GI50 [16],GI50 [17]
CC(=O)OCc1cccc(O)c1C(=O)CCC=C(C)C,> 100 µM (inactive),> 100 µM (inactive),> 100 µM (inactive),74.6 µM (inactive),> 100 µM (inactive),> 100 µM (inactive),> 100 µM (inactive),34.7 µM (inactive),> 100 µM (inactive),> 100 µM (inactive),46.9 µM (inactive),> 100 µM (inactive),> 100 µM (inactive),> 100 µM (inactive),> 100 µM (inactive),> 100 µM (inactive),–
O=C1OS2(OCc3cccc4cccc2c34)c2ccccc21 (stereo not drawn),> 100 µM (inactive),> 100 µM (inactive),> 100 µM (inactive),40.3 µM (inactive),> 100 µM (inactive),> 100 µM (inactive),> 100 µM (inactive),> 100 µM (inactive),> 100 µM (inactive),> 100 µM (inactive),> 100 µM (inactive),> 100 µM (inactive),> 100 µM (inactive),> 100 µM (inactive),> 100 µM (inactive),> 100 µM (inactive),–
Cc1c(/C=N/NC(=S)Nc2cccc(Cl)c2)c(=O)n(-c2ccccc2)n1C,18.2 µM (inactive),13.8 µM (inactive),50.1 µM (inactive),22.6 µM (inactive),27.9 µM (inactive),32.4 µM (inactive),18.3 µM (inactive),24 µM (inactive),31.3 µM (inactive),30.4 µM (inactive),46.8 µM (inactive),16.4 µM (inactive),16.6 µM (inactive),51.2 µM (inactive),14.7 µM (inactive),–,14.1 µM (inactive)
COc1ccc(C(=O)Cn2c(C(=O)/C=C/c3ccco3)nc3ccccc32)cc1,37.3 µM (inactive),22.2 µM (inactive),10 µM (inactive),25.1 µM (inactive),36.6 µM (inactive),27.4 µM (inactive),31 µM (inactive),22.1 µM (inactive),15.8 µM (inactive),66.7 µM (inactive),25.8 µM (inactive),37.1 µM (inactive),44.8 µM (inactive),31.4 µM (inactive),42.8 µM (inactive),39.1 µM (inactive),–
CC(=S)NC=C(C(N)=O)C(N)=O,> 100 µM (inactive),> 100 µM (inactive),> 100 µM (inactive),> 100 µM (inactive),> 100 µM (inactive),> 100 µM (inactive),> 100 µM (inactive),> 100 µM (inactive),> 100 µM (inactive),> 100 µM (inactive),> 100 µM (inactive),–,–,> 100 µM (inactive),> 100 µM (inactive),> 100 µM (inactive),> 100 µM (inactive)
COC(=O)/N=[N+](\[O-])C(c1ccccc1)c1ccccc1,> 100 µM (inactive),47.8 µM (inactive),> 100 µM (inactive),82 µM (inactive),> 100 µM (inactive),28.4 µM (inactive),> 100 µM (inactive),> 100 µM (inactive),> 100 µM (inactive),40.2 µM (inactive),69 µM (inactive),34.8 µM (inactive),> 100 µM (inactive),> 100 µM (inactive),–,> 100 µM (inactive),> 100 µM (inactive)
O=C(O)[C@@H]1NC[C@H]2C(Br)=NO[C@H]21,> 100 µM (inactive),–,23.4 µM (inactive),> 100 µM (inactive),> 100 µM (inactive),> 100 µM (inactive),> 100 µM (inactive),> 100 µM (inactive),29.3 µM (inactive),> 100 µM (inactive),> 100 µM (inactive),> 100 µM (inactive),94.8 µM (inactive),> 100 µM (inactive),> 100 µM (inactive),> 100 µM (inactive),> 100 µM (inactive)
CCOC(=O)C1C=C1C(C)(C)O (stereo not drawn),> 10 µM (inactive),> 10 µM (inactive),> 10 µM (inactive),> 10 µM (inactive),> 10 µM (inactive),> 10 µM (inactive),> 10 µM (inactive),> 10 µM (inactive),> 10 µM (inactive),7.24 µM (inactive),> 10 µM (inactive),–,> 10 µM (inactive),> 10 µM (inactive),> 10 µM (inactive),> 10 µM (inactive),> 10 µM (inactive)
SC1=Nc2ccccc2-c2nc(-c3cccc(Cl)c3)cc(-c3ccccc3)c2C1,2.11 µM (inactive),4.86 µM (inactive),11.2 µM (inactive),2.36 µM (inactive),2.38 µM (inactive),5.9 µM (inactive),0.971 µM (active),15 µM (inactive),19.6 µM (inactive),2.19 µM (inactive),3.15 µM (inactive),0.347 µM (active),–,2.98 µM (inactive),0.811 µM (active),2.08 µM (inactive),1.07 µM (active)

# Reference: ChEMBL document CHEMBL1201862, “PubChem BioAssay data set” (2004)
